Laboratory results as given in ChEMBL document CHEMBL4507301 (2021).

Assays:
[1] = test system: Tyrosine-protein kinase ABL1 (Homo sapiens), P00519 [T315I]; conditions: Compound concentration 1000.0 nM
[2] = biological target: NUAK family SNF1-like kinase 1 (Homo sapiens) (UniProt O60285); conditions: Compound concentration 1000.0 nM
[3] = biological target: BMP-2-inducible protein kinase (Homo sapiens) (UniProt Q9NSY1); conditions: Compound concentration 1000.0 nM
[4] = biological target: Mitotic checkpoint serine/threonine-protein kinase BUB1 (Homo sapiens) (UniProt O43683); conditions: Compound concentration 1000.0 nM
[5] = biological target: Calcium/calmodulin-dependent protein kinase type 1D (Homo sapiens) (UniProt Q8IU85); conditions: Compound concentration 1000.0 nM
[6] = biological target: Cyclin-dependent kinase 9 (Homo sapiens) (UniProt P50750); conditions: Compound concentration 1000.0 nM
[7] = biological target: Cyclin-dependent kinase-like 2 (Homo sapiens) (UniProt Q92772); conditions: Compound concentration 1000.0 nM
[8] = biological target: Casein kinase I isoform delta (Homo sapiens) (UniProt P48730); conditions: Compound concentration 1000.0 nM
[9] = test system: Epidermal growth factor receptor (Homo sapiens), P00533 [UNDEFINED MUTATION]; conditions: Compound concentration 1000.0 nM
[10] = biological target: Ephrin type-B receptor 6 (Homo sapiens) (UniProt O15197); conditions: Compound concentration 1000.0 nM
Chain of Ephrin type-B receptor 6 (Homo sapiens) (O15197 whole entry): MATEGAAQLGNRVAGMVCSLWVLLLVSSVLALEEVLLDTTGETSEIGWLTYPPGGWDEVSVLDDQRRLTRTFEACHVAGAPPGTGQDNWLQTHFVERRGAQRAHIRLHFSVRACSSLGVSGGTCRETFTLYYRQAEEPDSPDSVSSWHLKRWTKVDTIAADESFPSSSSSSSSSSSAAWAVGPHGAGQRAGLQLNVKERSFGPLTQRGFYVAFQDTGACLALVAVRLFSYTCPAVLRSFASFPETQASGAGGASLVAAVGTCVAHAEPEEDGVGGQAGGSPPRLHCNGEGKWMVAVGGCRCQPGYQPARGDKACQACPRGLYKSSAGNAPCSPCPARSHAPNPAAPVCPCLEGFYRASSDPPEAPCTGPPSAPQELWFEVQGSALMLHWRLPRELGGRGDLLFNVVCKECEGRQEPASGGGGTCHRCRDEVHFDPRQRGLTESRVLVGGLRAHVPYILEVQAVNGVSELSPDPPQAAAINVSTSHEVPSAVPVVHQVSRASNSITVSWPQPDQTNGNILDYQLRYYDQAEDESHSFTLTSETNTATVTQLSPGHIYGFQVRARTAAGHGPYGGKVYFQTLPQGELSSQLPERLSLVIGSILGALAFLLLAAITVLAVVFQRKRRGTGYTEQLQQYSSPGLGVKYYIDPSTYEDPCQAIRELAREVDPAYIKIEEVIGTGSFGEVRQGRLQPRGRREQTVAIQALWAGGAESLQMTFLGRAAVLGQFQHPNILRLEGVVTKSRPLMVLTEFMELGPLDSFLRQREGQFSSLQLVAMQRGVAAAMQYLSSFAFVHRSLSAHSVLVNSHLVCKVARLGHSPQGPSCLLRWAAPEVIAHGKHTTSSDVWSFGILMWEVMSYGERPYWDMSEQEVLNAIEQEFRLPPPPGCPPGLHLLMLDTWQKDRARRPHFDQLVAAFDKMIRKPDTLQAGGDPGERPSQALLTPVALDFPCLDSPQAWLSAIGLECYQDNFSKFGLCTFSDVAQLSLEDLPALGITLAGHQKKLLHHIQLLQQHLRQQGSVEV

[11] = biological target: Serine/threonine-protein kinase/endoribonuclease IRE1 (Homo sapiens) (UniProt O75460); conditions: Compound concentration 1000.0 nM
Chain of Serine/threonine-protein kinase/endoribonuclease IRE1 (Homo sapiens) (O75460 19-977 limits assumed): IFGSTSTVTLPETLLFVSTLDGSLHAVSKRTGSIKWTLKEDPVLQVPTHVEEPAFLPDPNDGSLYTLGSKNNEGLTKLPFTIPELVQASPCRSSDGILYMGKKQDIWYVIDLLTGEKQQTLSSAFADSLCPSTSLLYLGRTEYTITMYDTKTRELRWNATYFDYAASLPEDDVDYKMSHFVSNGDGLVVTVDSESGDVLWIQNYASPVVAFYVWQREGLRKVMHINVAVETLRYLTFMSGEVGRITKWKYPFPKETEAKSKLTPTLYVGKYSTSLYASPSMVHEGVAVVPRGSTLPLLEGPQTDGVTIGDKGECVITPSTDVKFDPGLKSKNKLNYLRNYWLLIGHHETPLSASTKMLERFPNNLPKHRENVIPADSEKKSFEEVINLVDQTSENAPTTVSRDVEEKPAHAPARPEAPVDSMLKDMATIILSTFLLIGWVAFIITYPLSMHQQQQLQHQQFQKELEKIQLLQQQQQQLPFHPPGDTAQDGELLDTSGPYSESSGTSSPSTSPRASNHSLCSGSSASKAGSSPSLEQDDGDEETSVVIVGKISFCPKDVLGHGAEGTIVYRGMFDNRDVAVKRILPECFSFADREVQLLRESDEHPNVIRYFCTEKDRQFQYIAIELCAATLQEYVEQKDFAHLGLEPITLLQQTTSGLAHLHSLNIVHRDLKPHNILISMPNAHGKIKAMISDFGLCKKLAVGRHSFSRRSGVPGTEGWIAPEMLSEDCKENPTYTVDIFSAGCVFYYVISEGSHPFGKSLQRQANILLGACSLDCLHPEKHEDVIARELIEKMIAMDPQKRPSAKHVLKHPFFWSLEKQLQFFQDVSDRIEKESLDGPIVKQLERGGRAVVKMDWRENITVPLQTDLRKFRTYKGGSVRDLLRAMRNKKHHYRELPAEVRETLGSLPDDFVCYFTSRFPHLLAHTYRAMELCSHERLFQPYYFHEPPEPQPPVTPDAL

[12] = biological target: Tyrosine-protein kinase Fer (Homo sapiens) (UniProt P16591); conditions: Compound concentration 1000.0 nM
[13] = biological target: Rhodopsin kinase GRK1 (Homo sapiens) (UniProt Q15835); conditions: Compound concentration 1000.0 nM
[14] = biological target: Inhibitor of nuclear factor kappa-B kinase subunit alpha (Homo sapiens) (UniProt O15111); conditions: Compound concentration 1000.0 nM
[15] = biological target: Mitogen-activated protein kinase 10 (Homo sapiens) (UniProt P53779); conditions: Compound concentration 1000.0 nM
[16] = biological target: Mitogen-activated protein kinase kinase kinase kinase 3 (Homo sapiens) (UniProt Q8IVH8); conditions: Compound concentration 1000.0 nM
[17] = biological target: Microtubule-associated serine/threonine-protein kinase 1 (Homo sapiens) (UniProt Q9Y2H9); conditions: Compound concentration 1000.0 nM
[18] = biological target: Dual specificity mitogen-activated protein kinase kinase 2 (Homo sapiens) (UniProt P36507); conditions: Compound concentration 1000.0 nM
[19] = biological target: Dual specificity mitogen-activated protein kinase kinase 4 (Homo sapiens) (UniProt P45985); conditions: Compound concentration 1000.0 nM
[20] = biological target: Serine/threonine-protein kinase MRCK beta (Homo sapiens) (UniProt Q9Y5S2); conditions: Compound concentration 1000.0 nM
[21] = biological target: Serine/threonine-protein kinase 38 (Homo sapiens) (UniProt Q15208); conditions: Compound concentration 1000.0 nM
[22] = biological target: Serine/threonine-protein kinase Nek7 (Homo sapiens) (UniProt Q8TDX7); conditions: Compound concentration 1000.0 nM
[23] = biological target: Serine/threonine-protein kinase PAK 2 (Homo sapiens) (UniProt Q13177); conditions: Compound concentration 1000.0 nM
[24] = biological target: Cyclin-dependent kinase 16 (Homo sapiens) (UniProt Q00536); conditions: Compound concentration 1000.0 nM
[25] = biological target: Cyclin-dependent kinase 18 (Homo sapiens) (UniProt Q07002); conditions: Compound concentration 1000.0 nM
[26] = biological target: Platelet-derived growth factor receptor beta (Homo sapiens) (UniProt P09619); conditions: Compound concentration 1000.0 nM
[27] = biological target: 3-phosphoinositide-dependent protein kinase 1 (Homo sapiens) (UniProt O15530); conditions: Compound concentration 1000.0 nM
Chain of 3-phosphoinositide-dependent protein kinase 1 (Homo sapiens) (O15530 whole entry, canonical isoform): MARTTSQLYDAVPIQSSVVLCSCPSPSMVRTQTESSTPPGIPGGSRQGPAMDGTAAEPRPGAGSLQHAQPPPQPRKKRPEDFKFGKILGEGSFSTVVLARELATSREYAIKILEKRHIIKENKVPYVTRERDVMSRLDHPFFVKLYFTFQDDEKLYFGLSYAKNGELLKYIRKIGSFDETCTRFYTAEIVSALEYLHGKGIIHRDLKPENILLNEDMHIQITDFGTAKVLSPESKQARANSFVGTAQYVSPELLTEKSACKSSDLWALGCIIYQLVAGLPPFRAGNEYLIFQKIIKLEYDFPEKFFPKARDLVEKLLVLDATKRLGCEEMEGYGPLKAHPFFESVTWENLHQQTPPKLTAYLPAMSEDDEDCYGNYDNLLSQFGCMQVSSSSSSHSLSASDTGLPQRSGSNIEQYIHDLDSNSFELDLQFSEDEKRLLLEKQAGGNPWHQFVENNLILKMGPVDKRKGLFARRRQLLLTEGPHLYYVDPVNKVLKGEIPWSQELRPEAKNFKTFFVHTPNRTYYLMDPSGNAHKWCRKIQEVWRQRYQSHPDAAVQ

[28] = test system: Phosphatidylinositol 4,5-bisphosphate 3-kinase catalytic subunit alpha isoform (Homo sapiens), P42336 [E545K]; conditions: Compound concentration 1000.0 nM
[29] = biological target: Phosphatidylinositol 4,5-bisphosphate 3-kinase catalytic subunit beta isoform (Homo sapiens) (UniProt P42338); conditions: Compound concentration 1000.0 nM
[30] = biological target: cAMP-dependent protein kinase catalytic subunit beta (Homo sapiens) (UniProt P22694); conditions: Compound concentration 1000.0 nM
[31] = biological target: Serine/threonine-protein kinase N1 (Homo sapiens) (UniProt Q16512); conditions: Compound concentration 1000.0 nM
[32] = biological target: Serine/threonine-protein kinase PLK2 (Homo sapiens) (UniProt Q9NYY3); conditions: Compound concentration 1000.0 nM
[33] = biological target: Protein kinase C eta type (Homo sapiens) (UniProt P24723); conditions: Compound concentration 1000.0 nM
Chain of Protein kinase C eta type (Homo sapiens) (P24723 whole entry): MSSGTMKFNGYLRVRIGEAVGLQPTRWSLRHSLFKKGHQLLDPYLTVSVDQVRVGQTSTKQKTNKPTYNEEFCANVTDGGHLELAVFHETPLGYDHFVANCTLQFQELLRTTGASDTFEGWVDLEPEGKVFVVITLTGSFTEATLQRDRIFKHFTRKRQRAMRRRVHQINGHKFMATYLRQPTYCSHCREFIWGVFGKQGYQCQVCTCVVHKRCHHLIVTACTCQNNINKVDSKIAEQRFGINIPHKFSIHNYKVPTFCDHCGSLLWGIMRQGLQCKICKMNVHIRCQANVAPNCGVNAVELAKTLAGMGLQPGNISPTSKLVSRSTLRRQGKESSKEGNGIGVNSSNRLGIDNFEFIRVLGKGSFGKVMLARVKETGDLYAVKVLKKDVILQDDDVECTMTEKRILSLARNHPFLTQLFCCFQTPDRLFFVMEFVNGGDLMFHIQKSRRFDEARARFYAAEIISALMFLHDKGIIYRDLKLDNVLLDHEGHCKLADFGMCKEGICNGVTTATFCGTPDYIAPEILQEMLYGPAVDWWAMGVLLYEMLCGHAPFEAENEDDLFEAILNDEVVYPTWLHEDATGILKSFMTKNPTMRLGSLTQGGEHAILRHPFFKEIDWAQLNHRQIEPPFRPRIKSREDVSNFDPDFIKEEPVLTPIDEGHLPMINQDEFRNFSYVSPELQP

[34] = biological target: Serine/threonine-protein kinase D2 (Homo sapiens) (UniProt Q9BZL6); conditions: Compound concentration 1000.0 nM
[35] = biological target: cAMP-dependent protein kinase catalytic subunit PRKX (Homo sapiens) (UniProt P51817); conditions: Compound concentration 1000.0 nM
[36] = biological target: Serine/threonine-protein kinase SIK3 (Homo sapiens) (UniProt Q9Y2K2); conditions: Compound concentration 1000.0 nM
[37] = biological target: Serine/threonine-protein kinase RIO1 (Homo sapiens) (UniProt Q9BRS2); conditions: Compound concentration 1000.0 nM
[38] = biological target: Non-receptor tyrosine-protein kinase TNK1 (Homo sapiens) (UniProt Q13470); conditions: Compound concentration 1000.0 nM
[39] = biological target: Serine/threonine-protein kinase ULK2 (Homo sapiens) (UniProt Q8IYT8); conditions: Compound concentration 1000.0 nM
[40] = biological target: Serine/threonine-protein kinase WNK3 (Homo sapiens) (UniProt Q9BYP7); conditions: Compound concentration 1000.0 nM
Chain of Serine/threonine-protein kinase WNK3 (Homo sapiens) (Q9BYP7 whole entry): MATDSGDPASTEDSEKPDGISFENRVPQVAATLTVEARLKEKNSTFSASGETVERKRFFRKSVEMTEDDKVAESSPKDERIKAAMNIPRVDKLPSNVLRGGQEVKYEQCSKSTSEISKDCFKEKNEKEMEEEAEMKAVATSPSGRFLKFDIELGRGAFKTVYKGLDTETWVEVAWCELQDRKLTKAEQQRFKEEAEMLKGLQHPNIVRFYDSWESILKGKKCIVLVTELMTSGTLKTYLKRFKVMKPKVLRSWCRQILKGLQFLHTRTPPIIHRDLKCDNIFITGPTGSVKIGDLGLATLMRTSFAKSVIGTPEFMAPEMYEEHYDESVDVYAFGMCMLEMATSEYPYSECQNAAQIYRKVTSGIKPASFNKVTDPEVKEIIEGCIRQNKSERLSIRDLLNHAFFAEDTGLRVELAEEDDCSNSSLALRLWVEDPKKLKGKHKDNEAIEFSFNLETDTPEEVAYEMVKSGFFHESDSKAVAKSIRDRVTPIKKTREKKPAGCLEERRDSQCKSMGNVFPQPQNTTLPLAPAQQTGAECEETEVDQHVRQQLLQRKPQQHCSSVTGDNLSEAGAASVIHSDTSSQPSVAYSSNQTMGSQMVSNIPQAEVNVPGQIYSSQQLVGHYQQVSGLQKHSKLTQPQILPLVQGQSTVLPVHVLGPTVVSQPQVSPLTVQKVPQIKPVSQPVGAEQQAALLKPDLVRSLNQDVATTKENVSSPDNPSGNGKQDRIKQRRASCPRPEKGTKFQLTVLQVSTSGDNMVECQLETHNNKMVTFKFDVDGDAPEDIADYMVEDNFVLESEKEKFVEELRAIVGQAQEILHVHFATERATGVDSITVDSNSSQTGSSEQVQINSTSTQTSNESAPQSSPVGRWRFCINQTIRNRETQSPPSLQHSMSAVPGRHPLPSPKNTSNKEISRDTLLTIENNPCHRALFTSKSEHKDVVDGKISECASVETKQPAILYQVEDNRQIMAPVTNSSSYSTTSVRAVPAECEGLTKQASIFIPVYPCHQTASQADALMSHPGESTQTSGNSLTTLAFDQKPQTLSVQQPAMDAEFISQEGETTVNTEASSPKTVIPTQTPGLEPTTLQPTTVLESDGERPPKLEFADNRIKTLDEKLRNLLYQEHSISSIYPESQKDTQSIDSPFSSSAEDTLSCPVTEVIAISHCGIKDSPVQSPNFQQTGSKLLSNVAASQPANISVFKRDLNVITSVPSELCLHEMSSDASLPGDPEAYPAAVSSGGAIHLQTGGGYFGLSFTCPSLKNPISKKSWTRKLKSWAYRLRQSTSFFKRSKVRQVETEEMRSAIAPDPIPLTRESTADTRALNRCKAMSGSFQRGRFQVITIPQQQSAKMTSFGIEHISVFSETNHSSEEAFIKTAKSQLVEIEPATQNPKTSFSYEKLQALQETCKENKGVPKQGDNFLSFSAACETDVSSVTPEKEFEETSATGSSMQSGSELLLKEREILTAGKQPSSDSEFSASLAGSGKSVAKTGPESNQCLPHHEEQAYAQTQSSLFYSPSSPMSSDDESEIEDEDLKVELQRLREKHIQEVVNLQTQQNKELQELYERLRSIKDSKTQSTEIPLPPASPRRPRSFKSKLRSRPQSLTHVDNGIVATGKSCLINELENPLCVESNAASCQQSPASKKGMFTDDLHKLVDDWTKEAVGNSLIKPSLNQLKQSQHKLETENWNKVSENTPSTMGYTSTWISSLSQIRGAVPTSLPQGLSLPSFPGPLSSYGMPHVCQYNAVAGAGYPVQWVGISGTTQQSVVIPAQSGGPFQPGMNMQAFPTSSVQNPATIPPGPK

[41] = biological target: Serine/threonine-protein kinase WNK4 (Homo sapiens) (UniProt Q96J92); conditions: Compound concentration 1000.0 nM
[42] = biological target: Mitogen-activated protein kinase kinase kinase 19 (Homo sapiens) (UniProt Q56UN5); conditions: Compound concentration 1000.0 nM
[43] = biological target: Delta-type opioid receptor (Homo sapiens) (UniProt P41143); conditions: Compound concentration 10.0 uM
[44] = biological target: Kappa-type opioid receptor (Homo sapiens) (UniProt P41145); conditions: Compound concentration 10.0 uM
[45] = biological target: Alpha-1B adrenergic receptor (Homo sapiens) (UniProt P35368); conditions: Compound concentration 10.0 uM

C[C@H](c1cccc(C#N)c1)n1cc(Cl)cc(C(N)=O)c1=N [(R)-9s]
inactive: residual activity [1] 92% | residual activity [2] 57% | residual activity [3] 100% | residual activity [4] 75% | residual activity [5] 97% | residual activity [6] 84% | residual activity [7] 100% | residual activity [8] 100% | residual activity [9] 99% | residual activity [10] 87% | residual activity [11] 69% | residual activity [12] 100% | residual activity [13] 74% | residual activity [14] 100% | residual activity [15] 100% | residual activity [16] 76% | residual activity [17] 96% | residual activity [18] 80% | residual activity [19] 100% | residual activity [20] 85% | residual activity [21] 87% | residual activity [22] 97% | residual activity [23] 100% | residual activity [24] 83% | residual activity [25] 100% | residual activity [26] 83% | residual activity [27] 100% | residual activity [28] 82% | residual activity [29] 94% | residual activity [30] 98% | residual activity [31] 65% | residual activity [32] 92% | residual activity [33] 100% | residual activity [34] 58% | residual activity [35] 100% | residual activity [36] 100% | residual activity [37] 100% | residual activity [38] 77% | residual activity [39] 71% | residual activity [40] 80% | residual activity [41] 97% | residual activity [42] 76% | inhibition [43] -7.87% | inhibition [44] -0.22% | inhibition [45] -1.16%

C[C@@H](c1cccc(C#N)c1)n1cc(Cl)cc(C(N)=O)c1=N [(S)-9s]
inactive: residual activity [1] 85% | residual activity [2] 89% | residual activity [3] 93% | residual activity [4] 93% | residual activity [5] 98% | residual activity [6] 91% | residual activity [7] 100% | residual activity [8] 100% | residual activity [9] 100% | residual activity [10] 100% | residual activity [11] 76% | residual activity [12] 100% | residual activity [13] 75% | residual activity [14] 100% | residual activity [15] 100% | residual activity [16] 100% | residual activity [17] 100% | residual activity [18] 76% | residual activity [19] 82% | residual activity [20] 100% | residual activity [21] 84% | residual activity [22] 89% | residual activity [23] 96% | residual activity [24] 96% | residual activity [25] 100% | residual activity [26] 84% | residual activity [27] 100% | residual activity [28] 88% | residual activity [29] 93% | residual activity [30] 100% | residual activity [31] 83% | residual activity [32] 97% | residual activity [33] 98% | residual activity [34] 91% | residual activity [35] 100% | residual activity [36] 94% | residual activity [37] 86% | residual activity [38] 94% | residual activity [39] 89% | residual activity [40] 82% | residual activity [41] 98% | residual activity [42] 94% | inhibition [43] -3.33% | inhibition [44] 1.2% | inhibition [45] -5.97%
